How the values were obtained:
[1] = system: St. faecalis; assay: Minimum inhibitory concentration against St. faecalis; assay type: cell-based; conditions: St. faecalis (intestinal flora)
[2] = system: Staph. coagulase positive; assay: Clinical cure of mastitis, Staph. coagulase positive; assay type: in vivo, dairy cattle; conditions: 40 ml 1.25% w/v, 6 infusions at successive milkings
Text: (§1) Efficacy studies used half herds on a positive control and half herds on the experimental treatment. The protocol agreed was that herds were randomly split into two halves by number. Odd numbered cows received experimental treatment and even numbered cows received the positive control. Any animal sufficiently badly affected (i.e. systematically affected) should be the subject of a visit from a veterinary surgeon and was not included in the trial on either side.
(§2) Milk samples of each infected quarter were sent to the MMB Laboratories for cell count and bacterial identification as follows:.
(§3) A clinical cure is defined as the udder returning to normal function.
(§4) 40 ml of 1.25% w/v solution of sodium oxychlorosene infused 6 times at 6 milkings.
(§5) 1 full tube of 100 mg procaine penicillin/100 mg dihydro-streptomycin sulphate infused 6 times at 6 milkings. Five measurements can be made from the figures available:
(§6) Odd numbered animals. Sodium oxychlorosene. 40 ml 1.25% w/v. 6 times at successive milkings.
(§7) Procaine penicillin/Dihydrostreptomycin sulphate. 6 times at 6 milkings.

[3] = system: E. coli; assay: Minimum inhibitory concentration against E. coli; assay type: cell-based; conditions: E. coli (intestinal flora)
[4] = system: mastitis; assay: Clinical efficacy in mastitis, overall and number of infusions to effect a clinical cure; assay type: in vivo, dairy cattle
Text: as §1, §2, §3, §4, §5
(§8) (The variations in n, the number of determinations from which the mean cell count is calculated, are due to various factors, such as samples leaking in transit, faster decomposition of samples in hot weather, especially where no inhibitor substances are present (i.e. sodium oxychlorosene). Mean number of infusions to effect a clinical cure where a clinical cure is affected after up to 6 infusions.

[5] = system: somatic cell counts in milk; assay: Mean somatic cell counts in milk during and after completed treatments; assay type: in vivo, dairy cattle
Text: as §2
Somatic cell counts in milk from individual quarters is an indication of the state of health of that quarter. The higher the cell count, the greater is the degree of infection or the irritant effect in the udder.
The mean cell counts for all experimental milk samples submitted to the MMB are shown below. It is not always possible to obtain a cell count if the milk is obviously mastitic or if the sample deteriorates in transit. One problem with sodium oxychlorosene samples is that, due to lack of inhibitory effects, samples in transit may deteriorate quite rapidly. Samples containing antibiotic inhibitors are generally better protected from microbiological deterioration in transit. Some samples, when specifically needed for cell counts and not for causative organism assay, have been protected by the addition of formalin. This was carried out, for instance, when the irritancy studies were carried out.
as §8

[6] = system: rats; assay: LD50 of Clorpactin WCS-90 in a milk vehicle by the oral route; assay type: in vivo; conditions: sterilized, γ-irradiated (2.5 megarads)
[7] = system: Str. dysgalactiae; assay: Clinical cure of mastitis, Str. dysgalactiae; assay type: in vivo, dairy cattle; conditions: 40 ml 1.25% w/v, 6 infusions at successive milkings
Text: as §1, §2, §3, §4, §5, §6, §7

[8] = in vivo
Text: The completed work, which takes the form of a series of individual studies, monitors the level of residues in milk from cows that were subjected to six infusions of a single normal strength "Clorpactin" dose (0.5 grams in 40 mls of physiological saline), both during infusion and for a series of milkings after the treatment was complete.
Analysis of the milk samples from each cow was by ion-pair reverse-phase chromatography. Calculation of the "Clorpactin" residues was, in the case of Study 01, by the peak height method, as the milk used for the standards was obtained from a different source from the cows under test (consequent detection limit 7 ppm). In studies, 02, 03 and 04 as the standards were made in milk obtained from the cow under test a few days prior to treatment, the peak area method was used (detection limit 1 ppm). […] Treatments:
Two mid-lactation cows (Fresian) were selected for the trial, with each being subjected to one course of treatment with the ""Clorpactin WCS-90". Treatments comprised six infusions, following six successive milkings, of "Clorpactin" at a single normal strength dose (0.5 gms per 40 mls of physiological saline)
Two healthy mid-lactation cows (Fresian) were selected for this trial, with again each cow being subjected to a single course of treatment with "Clorpactin WCS-90" Study 02 differed from Study 01 in that a sample of the milk from the quarters under test was removed from the cow a few days prior to treatment, to enable accurate standards to be prepared.
Three healthy mid-lactation cows (Fresian) were selected for the trial, with each being subjected to one course of treatment with the "Clorpactin WCS-90", to each of the four quarters of the animals.
The milk from all four quarters was monitored for residues during and after treatment, with the standards being made up in milk obtained from the quarters a few days before the trial.
Two mastitic cows, used in the efficacy study, were monitored for residues in the milk from a point where the milk appeared to be normal. It was not possible to evaluate the severely mastitic milk as no standards may be prepared to evaluate milk that is constantly changing in composition. The standards used in this case were made in milk obtained some 4 days after the last sample was taken.
Means cited at the foot of the Table are calculated taking the <7 ppm and <1 ppm results as 7 and 1, respectively.

[9] = system: E. coli; assay: Clinical cure of mastitis, E. coli; assay type: in vivo, dairy cattle; conditions: of 4 cases; 40 ml 1.25% w/v, 6 infusions at successive milkings
Text: as §1, §2, §3, §4, §5, §6, §7

[10] = bovine, in vivo
Protocol: An experimental study was conducted to determine if any absorption occurs between quarters during a course of treatment with "Clorpactin WCS-90".
The method used was to infuse two of the quarters of a healthy cow with a double normal strength course of treatment and to monitor each of the four quarters for "Clorpactin" residues, both during and after the trial. This with the assumption that if the material were being transferred between quarters by any mechanism it would be detected in the untreated quarters.
Analysis of the milk samples from each quarter was by ion-pair reverse-phase chromatography.
Calculation of the "Clorpactin" residues was by peak area with the milk used for the standards being prepared from milk obtained several days before treatment.
Two of the quarters were each infused with a double normal dose of "Clorpactin WCS-90" (2×0.5 g in 40 mls of physiological saline) on six consecutive occasions following 6 milkings.
The milk from all four quarters was monitored for residues both during and after the trial to determine if any transfer to untreated quarters had occurred.
The first infusion occurred after Milking No. 1, with the consequence that Milking 1 represents the background.

[11] = system: dairy cattle; conditions: bovine, in vivo
[12] = system: Str. agalactiae; assay: Clinical cure of mastitis, Str. agalactiae; assay type: in vivo, dairy cattle; conditions: 40 ml 1.25% w/v, 6 infusions at successive milkings
Text: as §1, §2, §3, §4, §5, §6, §7

[13] = system: Str. uberis; assay: Clinical cure of mastitis, Str. uberis; assay type: in vivo, dairy cattle; conditions: 40 ml 1.25% w/v, 6 infusions at successive milkings
Text: as §1, §2, §3, §4, §5, §6, §7

[14] = system: starters Streptococcus thermophilus and Lactobacillus bulgarius; assay: Inhibitory effect on yoghurt starter cultures (lactic acid by titratable acidity); assay type: cell-based
Protocol: The inhibitory effect of "Clorpactin" on starter cultures was also investigated: Raw whole milk was pasteurized and spiked with various concentrations of freshly prepared "Clorpactin". These samples were inoculated with the starters Streptococcus thermophilus and Lactobacillus bulgarius contained in natural yoghurt, incubated at 37°/5 hours and the percent lactic acid determined by titratable acidity (BSI, 1741:1963).

[15] = cited from earlier work

sodium oxychlorosene
minimum inhibitory concentration [1]: approximately 2000 ppm
% Clinical Cures ([2]; 72 cases): 90%
Clinical Cures ([2]; of 72 cases): 65
minimum inhibitory concentration [3]: approximately 2000 ppm
clinical cure versus the conventional antibiotic ([4]; 1.25% w/v, 95% confidence level): superior to the conventional antibiotic
significance (p) of mean number of infusions, Experimental vs Positive control ([4]; 72 degrees of freedom, t = 3.098): < 0.01
Mean number of infusions to effect a clinical cure ([4]; clinical cure effected after up to 6 infusions, n = 70 (sodium oxychlorosene 1.25% w/v, On1 1.61), n = 30 (antibiotic, On1 1.10)): 4.11
Mean Cell Counts ([5]; day 0): 6870
Mean Cell Counts ([5]; day 1): 6092
Mean Cell Counts ([5]; day 2): 4912
Mean Cell Counts ([5]; day 3): 4845
Mean Cell Counts ([5]; day 4): 3468
Mean Cell Counts ([5]; day 5): 2018
Mean Cell Counts ([5]; day 12): 1576
Mean Cell Counts ([5]; day 19): 965
LD50 [6]: > 5000 mg/kg
% Clinical Cures ([7]; 10 cases): 70%
Clinical Cures ([7]; of 10 cases): 7
10× mean residue level after withdrawal period [8]: 31 ppm
levels detected after treatment is complete [8]: quickly drops off to background
milking by which background has been achieved [8]: ≤ 8
withdrawal after treatment supported by the data [8]: one milking withdrawal
Clinical Cures [9]: 3
Clorpactin in the untreated quarters [10]: No evidence of any "Clorpactin" was detected in the untreated quarters
milking number by which level is clear [10]: ≤ 8
transference to the untreated quarters [10]: no mechanism of transference
adverse effects [11]: No adverse effects were found
% Clinical Cures ([12]; 51 cases): 82%
Clinical Cures ([12]; of 51 cases): 41
% Clinical Cures ([13]; 25 cases): 76%
Clinical Cures ([13]; of 25 cases): 19
percent lactic acid ([14]; Clorpactin-spiked milk up to 0.01% (100 ppm), 37°/5 hours, control also about 0.9%): about 0.9 % lactic acid
effect on yoghurt starter culture activity ([14]; conclusion): no adverse affect on yoghurt starter culture activity
effect on lactic acid production ([14]; levels of up to 0.01% (100 ppm) in pasteurized milk, 37°/5 hours): no effect on lactic acid production

(mon)oxychlorosene
hydrolysis in water ([15]; after dissolving): hydrolyses rapidly
dissolution in water [15]: dissolves slowly in water
